Like-named read-outs stand apart in the source and are kept apart here. Blank lines part the entries; values can stand above or below the compound they belong to.
What was measured:
[1] = molecular target: T1, STIM1/Orai1 CRAC channel (Homo sapiens, UniProt Q96D31); experiment: FLIPR assay of Orai1/STIM1-dependent Ca2+ entry in stably transfected STIM1/Orai1 cells; format: cell-based
T1 construct: expressed in transfected cells
Procedure: Cells are plated at 30K cells/50 uL media/well in PDL-coated 384-well plate (Greiner Cell Coat; VWR cat#82051-358) 24 hours before experiment. 20 μM Fluo-4-AM (Invitrogen cat#F-14201) are prepared, resuspended with 10 μl F-127, 20% pluronic solution in DMSO (Invitrogen cat#P3000MP), and added to 2.3 mL culture medium. Cells are loaded with dye by adding 5 μl of the 20 μM Fluo-4-AM solution to each well of the 384-well plate that already contained 50 μL of culture medium. The plates are kept in dark, RT, for approximately 1 hour. HBSS/1% HEPES/0.2 g/L MgCl2 was prepared and cells transferred to a plate washer to remove dye-loading solution from cells. The cells are washed with HBSS/1% HEPES/0.2 g/L MgCl2, being careful not to dislodge the cells. The final volume of buffer left on the cells should equal 40 μL. The cell plate is transferred to FLIPR monitoring instrument (Molecular Devices, Sunnyvale, Calif.), and 10 μL compound is added and incubated for 30 minutes. Data points (1/sec) are acquired prior to the addition of CaCl2 to establish basal readings. 5 μL 11 mM CaCl2 (1.0 mM CaCl2 final) is added, and the fluorescence read every second for 1 minute, then every 10 seconds for 14 minutes. […]
RBL-2H3 cells plated in 384-well plates are loaded for 45 min with FLUO-4-AM (2 μM final concentration) in a Hanks-buffered salt solution. […] Fifteen minutes after addition of Tg, store-operated calcium entry is initiated by adding external Ca^2+ to a final concentration of 1.8 mM and the cells monitored for a further 10-15 minutes. Calcium levels are monitored throughout the assay using a FLIPR^384 (Molecular Devices fluorimetric imaging plate reader for high throughput screening).
The kinetic data from the FLIPR^384 are analyzed and stored in a relational database (ActivityBase; IDBS). Ten quantitative parameters are calculated that define various aspects of the store-operated calcium entry response. […]

[2] = system: Drosophila S2 cells; experiment: Single-cell ratiometric fura-2 [Ca2+]i imaging of S2 cells; format: cell-based; details: control cells, 1 μM ionomycin in zero-Ca2+ solution, average
Procedure: RNAi in Drosophila S2 Cells. RNAi experiments were adapted from the protocols described by Worby et al. Drosophila S2 cells (0.5×10^6) were seeded in T-25 flasks in 2 ml of complete S2 medium. The next day, medium was removed and replaced with 2 ml of serum-free S2 medium. Twenty micrograms of dsRNA was added, and cells were incubated at room temperature for 45 min with gentle rocking. Four milliliters of S2 medium was added, and cells were incubated for 5 days at 24° C. Cells then were harvested and either plated for single-cell Ca^2+ imaging and patch-clamp experiments or processed for RT-PCR analysis.
Single-Cell [Ca^2+]i imaging. Ratiometric [Ca^2+]i Imaging was performed as described in ref. 3, using solution recipes described in Table 3. Transfected cells were recognized by coexpressed enhanced GFP (EGFP), using filters to avoid contamination of Fura-2 fluorescence by bleedthrough of GFP fluorescence. Data were analyzed with METAFLUOR software (Universal Imaging, Downington, Pa.) and ORIGINPRO 7.5 software (OriginLab, Northampton, Mass.) and are expressed as means ±SEM.
Effects of olf186-F Knockdown and Overexpression on Ca^2+ Influx and CRAC Currents in Single Cells. […]

[3] = system: HEK[STIM1] cells (STIM1 overexpression)
Procedure: (§1) To test whether the […] entry pathway constitutively activated by STIM1 overexpression is pharmacologically similar to endogenous SOCE, HEK[STIM1] cells are pre-incubated with increasing doses of 2-APB and STIM1-induced Ca^2+ entry is measured.

[4] = system: endogenous SOCE in HEK-Zeo control cells; details: read-out: IC50 of inhibition of calcium entry, thapsigargin-mediated store depletion, readdition of external calcium
Procedure: as §1

[5] = molecular target: T2, CRAC current in olf186-F+Stim transfectants (Drosophila melanogaster, UniProt Q9U6B8); experiment: Whole-cell patch-clamp of Ca2+ current in olf186-F+Stim transfected S2 cells; format: cell-based
T2 construct: A cDNA clone, pAc5.1/olf186-F, encoding full-length Drosophila olf186-F-RB, was generated for transfection into S2 cells; expressed in transfected cells; host or cells: Drosophila S2 cells (transient, Nucleofector)
T2 sequence (Q9U6B8 1-351): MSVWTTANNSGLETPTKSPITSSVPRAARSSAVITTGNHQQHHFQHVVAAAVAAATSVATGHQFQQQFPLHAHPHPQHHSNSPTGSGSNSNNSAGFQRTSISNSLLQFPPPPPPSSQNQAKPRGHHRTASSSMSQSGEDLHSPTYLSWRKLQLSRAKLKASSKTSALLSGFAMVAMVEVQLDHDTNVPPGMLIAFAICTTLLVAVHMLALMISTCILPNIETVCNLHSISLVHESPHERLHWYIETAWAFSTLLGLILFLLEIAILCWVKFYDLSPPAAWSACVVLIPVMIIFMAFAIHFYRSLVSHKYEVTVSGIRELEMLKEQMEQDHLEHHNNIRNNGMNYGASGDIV
Procedure: Whole-Cell Recording. Patch-clamp experiments were performed at room temperature in the standard whole-cell recording configuration, using a holding potential of −10 mV. […] To calculate current densities, peak current amplitudes were divided by membrane capacitance for each cell.

[6] = molecular target: T3, Orai1/STIM1 ICRAC channel (Homo sapiens, UniProt Q96D31); experiment: Patch clamp (PatchXpress) of calcium currents in cells stably transfected with STIM1 and Orai1; format: cell-based
T3 construct: expressed in transfected cells
Excerpt: Isolated, stably transfected cells were monitored with patch clamp analysis (PatchExpress) to detect calcium currents with overexpressed, stably transfected STIM1 and Orai1 nucleic acids.

[7] = molecular target: STIM1 and Orai1 in HEK293 cells (Homo sapiens, UniProt Q96D31); details: HEK293 cells coexpressing STIM1 and Orai1; cited from earlier work
[8] = system: Jurkat cells; details: cited from earlier work
[9] = system: colon cancer cells; details: cited from earlier work

T1 sequence (Q96D31 whole entry): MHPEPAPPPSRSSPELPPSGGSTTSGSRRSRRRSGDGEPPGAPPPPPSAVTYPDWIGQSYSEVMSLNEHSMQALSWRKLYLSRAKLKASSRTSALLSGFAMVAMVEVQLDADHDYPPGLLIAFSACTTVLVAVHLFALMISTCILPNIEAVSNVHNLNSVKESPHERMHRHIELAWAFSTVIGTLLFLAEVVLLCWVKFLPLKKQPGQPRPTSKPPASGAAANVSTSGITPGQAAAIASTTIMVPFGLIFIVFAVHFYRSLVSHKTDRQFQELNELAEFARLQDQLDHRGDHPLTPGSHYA
T3 sequence (Q96D31 whole entry): as above
Sequence of STIM1 and Orai1 in HEK293 cells (Q96D31 whole entry): as above

SMILES: C[C@H](CCC(=O)O)C[C@H](C)C[C@H](C)C(=O)/C=C(\O)[C@H](C)C[C@H](C)C/C=C/[C@@H](C)[C@@H](O)[C@@H](C)[C@@H](O)C[C@@H]1CC[C@@](C)([C@H]2CC[C@@](C)([C@@H](C)O)O2)O1 [ionomycin]
peak of Ca2+ release transient [2]: 200 nM

SMILES: NCCOB(c1ccccc1)c1ccccc1 [2-APB, 2-aminoethoxydiphenyl borate]
calcium entry at lower concentrations ([3]; absence of store depletion, lower concentrations): potentiated
IC50 ([3]; read-out: IC50 of inhibition of calcium entry, thapsigargin-mediated store depletion, readdition of external calcium): 10.5 µM
IC50 ([3]; read-out: IC50 of inhibition of constitutive calcium entry, absence of store depletion): 10.8 µM
IC50 [4]: 11.8 µM
effect on enhanced Ca2+ currents ([5]; 5 μM): potentiation of current before blocking
effect on enhanced Ca2+ currents ([5]; 20 μM): blocked
effect on CRAC channel currents (FIG. 8) [6]: potentiation
store-operated Ca2+ entry [7]: completely blocked

SMILES: Cc1nnsc1C(=O)Nc1ccc(-n2nc(C(F)(F)F)cc2C(F)(F)F)cc1 [BTP-2]
SOCE [8]: inhibits
proliferation [8]: inhibits
SOCE [9]: inhibits
proliferation [9]: inhibits

Now from value to compound:

CRAC-channel mediated Ca2+ entry [1]: inhibit
SMILES: O=C(Nc1scc(-c2ccc(Br)cc2)c1C(=O)O)c1ccc(F)cc1 [compound A]

CRAC-channel mediated Ca2+ entry [1]: inhibit
IC50 ([1]; read-out: IC50 (inhibition of calcium inflow)): 1.9 µM
SMILES: O=C(Nc1scc(-c2ccc(Br)cc2)c1C(=O)O)c1cccc(F)c1 [Cmpd B]

effect on enhanced Ca2+ currents ([5]; 50 nM): blocked
SMILES: [Gd+3] [Gd^3+]

From patent publication US8507269B2, “Calcium channel proteins and uses thereof” (CalciMedica, Inc., priority 2007, dated 2013)
